In one assay the test system is PC3. The experiment in a line: XTT proliferation assay, PC3. The assay is classed as cell-based, human. Conditions: Homo sapiens, read-out: XTT Proliferationsassay, EC50 PC3. The source says: (§1) Die Substanzen 1,2, 4-6 wurden in einem Proliferationstest an etablierten Tumorzelllinien auf ihre anti-proliferative Aktivität hin untersucht (D.A. Scuderio et al. Cancer Res. 1988, 48, 4827-4833). Der verwendete Test bestimmt die zelluläre Dehydrogenase-Aktivität und ermöglicht eine Bestimmung der Zellvitalität und indirekt der Zellzahl. Bei den verwendeten Zelllinien handelt es sich um die humane Cervixkarzinom Zelllinie KB/HeLa (ATCC CCL17), die ovariale Adenokarzinomzelllinie SKOV-3 (ATCC HTB77), die humane Glioblastom Zelllinie SF-268 (NCI 503138) und die Lungenkarzinom Zelllinie NCI-H460 (NCI 503473). Des weiteren wurde zur Untersuchung der Zellzyklus-spezifischen Wirkung der Substanz ein RKOp27 Zellsystem verwendet (M. Schmidt et al. Oncogene19(20):2423-9, 2000). Bei RKO handelt es sich um eine humane Kolonkarzinomlinie, in der der Zellzyklusinhibitor p27 ^kip1 mittels des Ecdyson Expressionssystems induziert zur Expression gebracht und zu einem Zellzyklusarrest spezifisch in G2 geführt werden kann. Eine unspezifisch wirkende Substanz hemmt die Proliferation unabhängig davon, ob die RKO Zelle in G1 oder G2 arretiert ist oder nicht. Zellzyklus-spezifische Substanzen wie beispielsweise Tubulininhibitoren sind hingegen nur dann zytotoxisch, wenn Zellen nicht arretiert sind und der Zellzyklus durchlaufen wird. In Tabelle 1 ist die zytotoxische bzw. wachstumshemmende Aktivität der beschriebenen Verbindungen mit / ohne Expression von p27^kip1gezeigt. Die getesteten Verbindungen zeigten im induzierten Zustand von p27^kiP1 keine zytotoxische Aktivität. Die Ergebnisse zeigen eine sehr potente Hemmung der Proliferation ausgewählter Tumorzelllinien durch die genannten Substanzen. Tabelle 1:
(§2) Zur weiteren Charakterisierung wurden die Substanzen 1-6 an einem Panel von 7 humanen Tumorzelllinien auf ihre anti-proliferative Wirkung hin untersucht. Bei den untersuchten Zelllinien handelt es sich um die humanen Glioma Zelllinien A172 (ATCC CRL-1620) und U118 (ATCC HTB-15), die humane Lungenkarzinom Zelllinie A549, das humane epidermoide Karzinom A431 (ATCC CRL-2592), die humanen Prostatakarzinom Zelllinien DU145 (ATCC HTB-81) und PC3 (ATCC CRL-1435) und die humane Kolon Adenokarzinomzelllinie HT29 (ATCC HTB-38). Es handelt sich hierbei um sehr gut charakterisierte, etablierte Zelllinien, die von ATCC, ECACC bzw. NCI erhalten und in Kultur genommen wurden. Die in Tab. […]
In general terms: Tetrazolium assays rely on reduction of a dye to a coloured formazan, in cell work by metabolically active cells.

The test system of a further assay is DU145. The experiment in a line: XTT proliferation assay, DU145. Type of assay: cell-based, human. Conditions: Homo sapiens, read-out: XTT Proliferationsassay, EC50 DU145.
Source text: as §1, §2

In the next assay the test system is P388ADR. The experiment in a line: XTT proliferation assay, P388ADR (doxorubicin-resistant). The assay is classed as cell-based, murine.
Source text: as §1
Zur weiteren Charakterisierung wurden die Substanzen 1,2,4-6 gegenüber multi drug resistenten Zelllinien im Vergleich zu den nicht-resistenten Wildtypzelllinien untersucht.
Bei den untersuchten Zelllinien handelt es sich um die murine L1210, die akute myeloische Leukaemie Zelllinie LT12 und um die resistenten Linien L1210/mdr und LT12/mdr. Außerdem wurden die murine P388 Zelllinie (methyl-cholanthreneinduced lymphoid neoplasm) sowie die Doxorubicin-resistente P388 als Testsysteme herangezogen.

The next assay concerns A172. Description: XTT proliferation assay, A172. Type of assay: cell-based, human. The settings on record: Homo sapiens, read-out: XTT Proliferationsassay, EC50 A172.
Source text: as §1, §2

A further assay concerns HT29. The experiment in a line: XTT proliferation assay, HT29. Type of assay: cell-based, human. Conditions: Homo sapiens, read-out: XTT Proliferationsassay, EC50 HT29.
Source text: as §1, §2

For another assay, the system named is U118MG. The experiment in a line: XTT proliferation assay, U118MG. Type of assay: cell-based. Conditions: Homo sapiens, U-118-MG; read-out: XTT Proliferationsassay, EC50 U118MG.
Source text: as §1, §2

For a further assay, the target named is DNA-Topoisomerase II (Homo sapiens, UniProt P11388). The experiment in a line: kDNA decatenation assay for topoisomerase II activity. The assay is classed as biochemical. Conditions: tested at 100, 31.6 and 10 µM. The method, then:
In diesem von P. Arimondo (Anti-Cancer Drug Design 2000, 15 (6), 413-421) beschriebenen Assay wird kDNA mit humaner DNA-Topoisomerase II in Abwesenheit oder Gegenwart der Testverbindungen behandelt. Die Testung der erfindungsgemäßen Verbindungen 2, 4 und 5 erfolgte hierbei bei drei unterschiedlichen Konzentrationen (100, 31.6 und 10 µM). Zum Vergleich setzte man eine Positivkontrolle und die Referenzverbindungen m-Amsacrin (m-Amsa), Paclitaxel und Vincristine bei einer jeweiligen Konzentration von 100µM ein.
Zu 1µL vorgelegter Testsubstanz (20fach konzentriert in 100% DMSO) werden 2µL 10x Assay Puffer, 1µL kDNA (200ng), 0.5µL human Topoisomerase II (1 unit) und 15,5µL H2O pipettiert und gemischt.
Die Reaktionsansätze werden in den auf 37°C vorgeheizten Heizblock gestellt und 10min bei 37°C inkubiert. Die Inkubation wird nach Zugabe von 4µL 5x Stop Puffer gestoppt und nachfolgend die Substanz mit CIA extrahiert. Danach werden 20µL des Überstandes auf ein 1 % Agarosegel mit 0,25µg/mL Ethidiumbromid aufgetragen und 1h bei 100V aufgetrennt. Zum Schluss wird das Gel unter UV-Anregung fotografiert (s. Graph 1). Die Quantifizierung der Inhibierung der Decatenation von kDNA erfolgt mit der GeIPro® Analyzer Software (s. Graph 2) [formula] [formula]

In another assay the test system is RKOp27. The experiment in a line: XTT proliferation assay, RKOp27 cell system with / without induced p27kip1 expression. Type of assay: cell-based. The settings on record: Homo sapiens.
Source text: as §1, with “Substanzen.” for “Substanzen. Tabelle 1:”

[1] abbreviates: RKOP27, without expression of p27kip1, read-out: XTT Proliferationsassay, EC50 RKOP27.
The mark [2] stands for this setting: RKOP27 ind., p27kip1 expression induced (cells arrested), read-out: XTT Proliferationsassay, EC50 RKOP27 ind.
Setting [3] is: Mus musculus, P388/ADR; read-out: XTT Proliferationsassay, EC50 P388ADR.

Values after ≈ are worked out from the molar mass of the structure shown. Like-named read-outs stand apart in the source and are kept apart here. Some results are limits rather than exact numbers.

Chain of DNA-Topoisomerase II (P11388 whole entry): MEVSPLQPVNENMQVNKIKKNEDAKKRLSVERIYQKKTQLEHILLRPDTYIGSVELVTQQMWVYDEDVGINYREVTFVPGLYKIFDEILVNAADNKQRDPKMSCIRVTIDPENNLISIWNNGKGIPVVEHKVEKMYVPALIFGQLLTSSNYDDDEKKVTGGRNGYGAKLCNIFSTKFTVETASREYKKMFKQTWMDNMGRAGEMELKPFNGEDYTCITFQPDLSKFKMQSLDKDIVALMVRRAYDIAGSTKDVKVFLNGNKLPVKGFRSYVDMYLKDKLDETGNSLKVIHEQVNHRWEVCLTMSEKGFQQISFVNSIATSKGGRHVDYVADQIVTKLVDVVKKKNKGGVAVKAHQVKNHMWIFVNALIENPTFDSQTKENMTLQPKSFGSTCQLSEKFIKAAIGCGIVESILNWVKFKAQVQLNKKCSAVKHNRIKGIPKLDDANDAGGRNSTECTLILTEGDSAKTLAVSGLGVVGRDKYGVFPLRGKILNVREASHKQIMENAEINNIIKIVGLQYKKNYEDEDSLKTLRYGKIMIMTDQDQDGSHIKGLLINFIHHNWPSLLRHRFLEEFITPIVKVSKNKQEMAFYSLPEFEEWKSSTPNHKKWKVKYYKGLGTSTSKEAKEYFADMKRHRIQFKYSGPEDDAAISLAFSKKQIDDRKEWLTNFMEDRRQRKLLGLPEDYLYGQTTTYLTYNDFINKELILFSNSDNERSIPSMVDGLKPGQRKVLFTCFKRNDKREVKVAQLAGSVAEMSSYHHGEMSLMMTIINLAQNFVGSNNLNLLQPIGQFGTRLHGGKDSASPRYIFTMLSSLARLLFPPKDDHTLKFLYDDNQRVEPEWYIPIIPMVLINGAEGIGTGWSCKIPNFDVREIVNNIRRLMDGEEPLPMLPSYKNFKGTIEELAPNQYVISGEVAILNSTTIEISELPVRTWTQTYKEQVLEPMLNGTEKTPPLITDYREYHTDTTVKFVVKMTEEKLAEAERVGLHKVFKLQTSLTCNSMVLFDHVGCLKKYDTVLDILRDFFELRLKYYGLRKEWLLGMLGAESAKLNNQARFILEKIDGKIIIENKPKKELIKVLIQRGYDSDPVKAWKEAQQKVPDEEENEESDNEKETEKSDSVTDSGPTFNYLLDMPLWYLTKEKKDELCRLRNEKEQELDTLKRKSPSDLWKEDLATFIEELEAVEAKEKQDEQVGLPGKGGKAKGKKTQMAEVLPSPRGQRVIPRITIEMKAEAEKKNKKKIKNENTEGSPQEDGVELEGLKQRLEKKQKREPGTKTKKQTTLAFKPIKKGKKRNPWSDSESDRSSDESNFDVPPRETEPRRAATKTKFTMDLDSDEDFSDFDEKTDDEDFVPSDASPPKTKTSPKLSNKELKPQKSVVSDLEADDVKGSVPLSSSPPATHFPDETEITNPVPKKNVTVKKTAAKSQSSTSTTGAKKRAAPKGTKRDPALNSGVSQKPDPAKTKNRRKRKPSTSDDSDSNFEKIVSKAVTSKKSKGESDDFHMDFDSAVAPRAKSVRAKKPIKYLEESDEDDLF

Regarding `O=C(Nc1ccc2ncccc2c1)C(=O)c1cn(Cc2ccc(Cl)cc2)c2ccccc12` [Verbindung 2, 2-[1-(4-Chlor-benzyl)-1 H-indol-3-yl]-2-oxo-N-chinolin-6-yl-acetamid], the EC50 in the assay with PC3 (PC-3) was determined as 0.016 µg/mL (≈ 0.0364 µM); in the assay on DU145 (DU-145), 0.047 µg/mL (≈ 0.107 µM); in the assay with P388ADR (Mus musculus, P388/ADR, read-out: XTT Proliferationsassay, EC50 P388ADR), 0.056 µg/mL (≈ 0.127 µM); in the assay with A172 (A 172), 0.024 µg/mL (≈ 0.0546 µM); with HT29 (HT-29), 0.027 µg/mL (≈ 0.0614 µM); in the assay on U118MG, 0.022 µg/mL (≈ 0.05 µM). For the same compound, the figures for the EC50 in the assay with RKOp27 (setting [1]) and in the assay on RKOp27 (setting [2]) were 0.047 µg/mL (≈ 0.107 µM) and over 3.16 µg/mL, respectively. At DNA-Topoisomerase II, the “Hemmung der Topoisomerase II (kDNA Assay)” value (“Hemmung der Topoisomerase II” below) is recorded as “signifikante Hemmung der Topoisomerase II”.

For `O=C(Nc1ccc2ncccc2c1)C(=S)c1cn(Cc2ccc(Cl)cc2)c2ccccc12` [Verbindung 4, 2-[1-(4-Chlorbenzyl)-1 H-indol-3-yl]-N-chinolin-6-yl-2-thioxoacetamid], the EC50 worked out at 0.027 µg/mL (≈ 0.0592 µM) in the assay on PC3 (PC-3, PC3); 0.045 µg/mL (≈ 0.0987 µM) with DU145 (DU-145, DU145); 0.051 µg/mL (≈ 0.112 µM) in the assay on P388ADR (setting [3]); 0.043 µg/mL (≈ 0.0943 µM) in the assay with A172 (A 172, A172); 0.04 µg/mL (≈ 0.0877 µM) with HT29 (HT-29, HT29); 0.03 µg/mL (≈ 0.0658 µM) with U118MG. Further, the EC50 in the assay with RKOp27 (setting [1]) was 0.053 µg/mL (≈ 0.116 µM); in the assay with RKOp27 (setting [2]), over 3.16 µg/mL. In addition, at DNA-Topoisomerase II, the “Hemmung der Topoisomerase II” value is given as “signifikante Hemmung der Topoisomerase II”.

`O=C(Nc1cnc2nccnc2c1)C(=O)c1cn(Cc2ccc(Cl)cc2)c2ccccc12` [Verbindung 5, 2-[1-(4-Chlor-benzyl)-1H-indol-3-yl]-2-oxo-N-pyrido[2,3-b]pyrazin-7-yl-acetamid]: the EC50 is 0.03 µg/mL (≈ 0.0679 µM) in the assay with PC3 (PC-3, PC3); 0.035 µg/mL (≈ 0.0792 µM) in the assay with DU145 (DU-145, DU145); 0.019 µg/mL (≈ 0.043 µM) with P388ADR (setting [3]); 0.019 µg/mL (≈ 0.043 µM) with A172 (A 172, A172); 0.07 µg/mL (≈ 0.158 µM) in the assay with HT29 (HT-29, HT29); 0.013 µg/mL (≈ 0.0294 µM) in the assay with U118MG. In addition, the results for the EC50 in the assay on RKOp27 (setting [1]) and in the assay with RKOp27 (setting [2]) were 0.065 µg/mL (≈ 0.147 µM) and over 3.16 µg/mL, respectively. In addition, on DNA-Topoisomerase II, the “Hemmung der Topoisomerase II” value is recorded as “Inhibierung der Topoisomerase II”.
